Results taken from US11066416B2, “Rapafucin derivative compounds and methods of use thereof” (The Johns Hopkins University, priority 2016, dated 2021).

Assays:
Assay type in all cases: cell-based
[1] = system: specific cell lines indicated in each assay; assay: Cell proliferation assay (Prolif.), IC50 or single concentration, cell line as indicated in each table; conditions: A549 cells; for Prolif, A549: Table 10; for Rel. Prolif., A549: single concentration, response relative to DMSO
Description: (§1) Cell Proliferation Assay (Prolif.) Guo et al. (2018) Nat. Chem. 11:254-63. Specific cell lines are indicated in each assay and cultured in complete growth media. Activity is scored according to the IC50 values relative to DMSO control. “Low” indicates an IC50 greater than 600 nM, “Medium” indicates an IC50 between 300 nM and 600 nM “High” indicates an IC50 less than 300 nM. “Rel.Uptake” refers to uptake activity characterization relative to a single concentration assay. “Low” indicates a response greater than 0.6 times the activity relative to DMSO, “Medium” indicates a response between 0.6 and 0.3 times the activity relative to DMSO, “High” indicates a response less than 0.3 times the activity relative to DMSO.

H929 = assay: Cell proliferation assay (Prolif.), H929; conditions: for Prolif. H929: H929 cells, IC50 class relative to DMSO control; for Rel. Prolif., NCI-H929: NCI-H929 cells, single concentration, response relative to DMSO
Description: as §1

[2] = system: nucleoside uptake (3H-Thymidine); assay: Rel.Uptake: nucleoside uptake, single concentration assay, cell line as indicated in each table; conditions: 293T, nucleoside uptake, response relative to DMSO
Description: Nucleoside Uptake Assay (uptake). Nuceloside uptake assays were performed with using 3H-Thymidine as described in Guo et al. (2018) Nat. Chem. 11:254-63. Specific cell lines are indicated in each assay and cultured in complete growth media. Activity is scored according to the IC50 values relative to DMSO control. “Low” indicates an IC50 greater than 600 nM, “Medium” indicates an IC50 between 300 nM and 600 nM “High” indicates an IC50 less than 300 nM. “Rel.Uptake” refers to uptake activity characterization relative to a single concentration assay. “Low” indicates a response greater than 0.6 times the activity relative to DMSO, “Medium” indicates a response between 0.6 and 0.3 times the activity relative to DMSO, “High” indicates a response less than 0.3 times the activity relative to DMSO.

SMILES	Prolif, A549 [1]	Rel. Prolif., A549 [1]	other results
CCCC[C@H]1C(=O)N[C@@H](Cc2ccc3ccccc3c2)C(=O)N(C)[C@@H](COC(C)(C)C)C(=O)NCC(=O)N(C)CCC=CC(=O)OCC(C)(C)C(=O)C(=O)N2CCCC[C@H]2C(=O)O[C@H](CCc2cc(OC)c(OC)c(OC)c2)c2cccc(c2)OCC(=O)N1C [Compound 560]	medium	medium	
CCCC[C@H]1C(=O)N[C@@H](Cc2ccc3ccccc3c2)C(=O)N(C)[C@@H](COC(C)(C)C)C(=O)NCC(=O)N(C)CCC=CC(=O)OCC(C)(C)C(=O)C(=O)N2CCCC[C@H]2C(=O)O[C@H](CCc2ccc(OC)c(OC)c2OC)c2cccc(c2)OCC(=O)N1C [Compound 561]	medium	medium	
CCCC[C@H]1C(=O)N[C@@H](Cc2ccc3ccccc3c2)C(=O)N(C)[C@@H](COC(C)(C)C)C(=O)NCC(=O)N(C)CCC=CC(=O)OCC(C)(C)C(=O)C(=O)N2CCCC[C@H]2C(=O)O[C@H](CCc2cc(OC)c(OC)cc2OC)c2cccc(c2)OCC(=O)N1C [Compound 562]	medium	medium	
CCCC[C@H]1C(=O)N[C@@H](Cc2ccc3ccccc3c2)C(=O)N(C)[C@@H](COC(C)(C)C)C(=O)NCC(=O)N(C)CCC=CC(=O)OCC(C)(C)C(=O)C(=O)N2CCCC[C@H]2C(=O)O[C@H](CCc2cc(OC)cc(OC)c2OC)c2cccc(c2)OCC(=O)N1C [Compound 563]	low	low	
CCCC[C@H]1C(=O)N[C@@H](Cc2ccc3ccccc3c2)C(=O)N(C)[C@@H](COC(C)(C)C)C(=O)NCC(=O)N(C)CCC=CC(=O)OCC(C)(C)C(=O)C(=O)N2CCCC[C@H]2C(=O)O[C@H](CCc2c(OC)ccc(OC)c2OC)c2cccc(c2)OCC(=O)N1C [Compound 564]	low	low	
CCCC[C@H]1C(=O)N[C@@H](Cc2ccc3ccccc3c2)C(=O)N(C)[C@@H](COC(C)(C)C)C(=O)NCC(=O)N(C)CCC=CC(=O)OCC(C)(C)C(=O)C(=O)N2CCCC[C@H]2C(=O)O[C@H](CCc2ccc(OC)c(OC)c2O)c2cccc(c2)OCC(=O)N1C [Compound 565]	medium	medium	
CCCC[C@H]1C(=O)N[C@@H](Cc2ccc3ccccc3c2)C(=O)N(C)[C@@H](COC(C)(C)C)C(=O)NCC(=O)N(C)CCC=CC(=O)OCC(C)(C)C(=O)C(=O)N2CCCC[C@H]2C(=O)O[C@H](CCc2cc(O)c(OC)c(OC)c2)c2cccc(c2)OCC(=O)N1C [Compound 566]	medium	medium	
CCCC[C@H]1C(=O)N[C@@H](Cc2ccc3ccccc3c2)C(=O)N(C)[C@@H](COC(C)(C)C)C(=O)NCC(=O)N(C)CCC=CC(=O)OCC(C)(C)C(=O)C(=O)N2CCCC[C@H]2C(=O)O[C@H](CCc2cc(OC)c(OC)cc2O)c2cccc(c2)OCC(=O)N1C [Compound 567]	medium	medium	
CCCC[C@H]1C(=O)N[C@@H](Cc2ccc3ccccc3c2)C(=O)N(C)[C@@H](COC(C)(C)C)C(=O)NCC(=O)N(C)CCC=CC(=O)OCC(C)(C)C(=O)C(=O)N2CCCC[C@H]2C(=O)O[C@H](CCc2cc(F)c(OC)c(OC)c2)c2cccc(c2)OCC(=O)N1C [Compound 568]	medium	medium	
CCCC[C@H]1C(=O)N[C@@H](Cc2ccc3ccccc3c2)C(=O)N(C)[C@@H](COC(C)(C)C)C(=O)NCC(=O)N(C)CCC=CC(=O)OCC(C)(C)C(=O)C(=O)N2CCCC[C@H]2C(=O)O[C@H](CCc2cc(OC)c(OC)cc2F)c2cccc(c2)OCC(=O)N1C [Compound 569]	medium	medium	
CCCC[C@H]1C(=O)N[C@@H](Cc2ccc3ccccc3c2)C(=O)N(C)[C@@H](COC(C)(C)C)C(=O)NCC(=O)N(C)CCC=CC(=O)OCC(C)(C)C(=O)C(=O)N2CCCC[C@H]2C(=O)O[C@H](CCc2ccc(OC)c(OC)c2F)c2cccc(c2)OCC(=O)N1C [Compound 570]	medium	medium	
CCCC[C@H]1C(=O)N[C@@H](Cc2ccc3ccccc3c2)C(=O)N(C)[C@@H](COC(C)(C)C)C(=O)NCC(=O)N(C)CCC=CC(=O)OCC(C)(C)C(=O)C(=O)N2CCN(C(=O)OCC3c4ccccc4-c4ccccc43)C[C@H]2C(=O)O[C@H](CCc2ccc(OC)c(OC)c2)c2cccc(c2)OCC(=O)N1C [Compound 571]	low	low	
CCCC[C@H]1C(=O)N[C@@H](Cc2ccc3ccccc3c2)C(=O)N(C)[C@@H](COC(C)(C)C)C(=O)NCC(=O)N(C)CCC=CC(=O)OCC(C)(C)C(=O)C(=O)N2CCN(C)C[C@H]2C(=O)O[C@H](CCc2ccc(OC)c(OC)c2)c2cccc(c2)OCC(=O)N1C [Compound 572]	medium	medium	
CCCC[C@H]1C(=O)N[C@@H](Cc2ccc3ccccc3c2)C(=O)N(C)[C@@H](COC(C)(C)C)C(=O)NCC(=O)N(C)CCC=CC(=O)OCC(C)(C)C(=O)C(=O)N2CCCC[C@H]2C(=O)O[C@H](CCc2ccc(OC)c(OC)c2)c2cc(ccc2F)OCC(=O)N1C [Compound 573]	low	low	
CCCC[C@H]1C(=O)N[C@@H](Cc2ccc3ccccc3c2)C(=O)N(C)[C@@H](COC(C)(C)C)C(=O)NCC(=O)N(C)CCC=CC(=O)OCC(C)(C)C(=O)C(=O)N2CCCC[C@H]2C(=O)O[C@H](CCc2ccc(OC)c(OC)c2)c2cc(F)cc(c2)OCC(=O)N1C [Compound 574]	low	low	
CCCC[C@H]1C(=O)N[C@@H](Cc2ccc3ccccc3c2)C(=O)N(C)[C@@H](COC(C)(C)C)C(=O)NCC(=O)N(C)CCC=CC(=O)OCC(C)(C)C(=O)C(=O)N2CCCC[C@H]2C(=O)O[C@H](CCc2ccc(OC)c(OC)c2)c2ccc(F)c(c2)OCC(=O)N1C [Compound 576]	medium	medium	
COc1ccc(CC[C@H]2OC(=O)[C@@H]3CCCCN3C(=O)C(=O)C(C)(C)COC(=O)C=CCCN(C)C(=O)[C@@H](Cc3ccccc3)NC(=O)CN(C)C(=O)[C@@H](Cc3ccccc3)NC(=O)[C@H](Cc3ccc(OC(=O)N4CCOCC4)cc3)N(C)C(=O)COc3cccc2c3F)cc1OC [Compound 867]			Prolif. H929 (H929): low; Rel. Prolif., NCI-H929 (H929): low
COc1ccc(CC[C@H]2OC(=O)[C@@H]3CCCCN3C(=O)C(=O)C(C)(C)COC(=O)C=CCCN(C)C(=O)[C@@H](Cc3ccccc3)NC(=O)CN(C)C(=O)[C@@H](Cc3ccccc3)NC(=O)[C@H](Cc3ccc(OC(=O)N4CCOCC4)cc3)N(C)C(=O)COc3cc(F)cc2c3)cc1OC [Compound 868]			Prolif. H929 (H929): low; Rel. Prolif., NCI-H929 (H929): low
COc1ccc(CC[C@H]2OC(=O)[C@@H]3CCCCN3C(=O)C(=O)C(C)(C)COC(=O)C=CCCN(C)C(=O)[C@@H](Cc3ccccc3)NC(=O)CN(C)C(=O)[C@@H](Cc3ccccc3)NC(=O)[C@H](Cc3ccc(OC(=O)N4CCOCC4)cc3)N(C)C(=O)CCC(=O)Nc3cccc2c3)cc1OC [Compound 869]			Prolif. H929 (H929): low; Rel. Prolif., NCI-H929 (H929): low
COc1ccc(CC[C@H]2OC(=O)[C@@H]3CCCCN3C(=O)C(=O)C(C)(C)COC(=O)C=CCCN(C)C(=O)[C@@H](Cc3ccccc3)NC(=O)CN(C)C(=O)[C@@H](Cc3ccccc3)NC(=O)[C@H](Cc3ccc(OC(=O)N4CCOCC4)cc3)NC(=O)COc3cccc2c3)cc1OC [Compound 877]			Prolif. H929 (H929): low; Rel. Prolif., NCI-H929 (H929): kmv
CCCC[C@H]1C(=O)N[C@@H](Cc2ccc3ccccc3c2)C(=O)N(C)[C@@H](COC(C)(C)C)C(=O)NCC(=O)N(C)CCC=CC(=O)OCC(C)(C)C(=O)C(=O)N2CCCC[C@H]2C(=O)O[C@H](CCc2ccc(OC)c(OC)c2)c2cccc(c2F)OCC(=O)N1C [Compound 1563]	high		Rel. Uptake, 293T [2]: high
CCCC[C@H]1C(=O)N[C@@H](Cc2ccc3ccccc3c2)C(=O)N(C)[C@@H](COC(C)(C)C)C(=O)NCC(=O)N(C)CCC=CC(=O)OCC(C)(C)C(=O)C(=O)N2CCCC[C@H]2C(=O)O[C@H](CCc2ccc(OC)c(O)c2)c2cccc(c2)OCC(=O)N1C [Compound 1564]	high		Rel. Uptake, 293T [2]: high
CCCC[C@H]1C(=O)N[C@@H](Cc2ccc3ccccc3c2)C(=O)N(C)[C@@H](COC(C)(C)C)C(=O)NCC(=O)N(C)CCC=CC(=O)OCC(C)(C)C(=O)C(=O)N2CCCC[C@H]2C(=O)O[C@H](CCc2ccc(OC)c(OC)c2)c2cncc(c2)OCC(=O)N1C [Compound 1565]	low		Rel. Uptake, 293T [2]: low
CC[C@H](C)[C@H]1C(=O)NCC(=O)N(C)CC/C=C\C(=O)OCC(C)(C)C(=O)C(=O)N2CCCC[C@H]2C(=O)O[C@H](CCc2ccc(OC)c(OC)c2)c2cccc(c2)NC(=O)CCC(=O)N(C)[C@@H](CC(C)C)C(=O)N[C@H](Cc2ccccc2)C(=O)N1C [Compound 1592]			Rel. Uptake, 293T [2]: Low (“Low” indicates a response greater than 0.6 times the activity relative to DMSO); IC50 ([1]; Homo sapiens, Table 17): < 300 nM
